How the values were obtained:
[1] = human, in vivo
[2] = Pharmacokinetics in patient blood samples, noncompartmental analysis; details: versus patients without; P=0.016; Fig. S3
[3] = tested on: γH2AX foci in hair follicles; experiment: γH2AX foci formation in hair follicles as marker of DNA double-strand breaks; format: in vivo, human; details: hair follicles from eight patients
[4] = single-agent sacituzumab govitecan ref 35; cited from earlier work
[5] = tested on: SCLC; details: monotherapy, SCLC ref 45; cited from earlier work

CCc1c2c(nc3ccc(O[C@@H]4O[C@H](C(=O)O)[C@@H](O)[C@H](O)[C@H]4O)cc13)-c1cc3c(c(=O)n1C2)COC(=O)[C@]3(O)CC [SN-38G]
SN-38G Cmax in patients experiencing fatigue [1]: higher

CCc1c2c(nc3ccc(O)cc13)-c1cc3c(c(=O)n1C2)COC(=O)[C@]3(O)CC [SN-38]
SN-38 AUC in patients experiencing lymphopenia [2]: higher

sacituzumab govitecan
γH2AX foci in hair follicles following sacituzumab govitecan [3]: substantial increase in the number and intensity of γH2AX foci
Grade ≥ 3 neutropenia, fraction of patients [4]: about one-third
Tumor responses [5]: led to tumor responses in SCLC

Reference: paper PMC10524218 (Clinical cancer research : an official journal of the …, 2023)
